In patent publication EP4755885A1 (Shanghai Hansoh Biomedical Co., Ltd., priority 2023, dated 2025):
Read-outs that look alike come from different tables or passages of the source.

How the values were obtained:
human GLP-1 receptor = molecular target: T1, human GLP-1 receptor (Homo sapiens, UniProt P43220); assay: cAMP production in cell line stably transformed with human GLP1 receptor, 30 min co-incubation (HTRF); assay type: cell-based; conditions: CHO-K1/GLP-1R/CRE-luc cells, stimulation for 0.5 h
T1 construct: expressed in transfected cells
Method: The purpose of this assay example is to test the ability of the compound to activate the human GLP-1 receptor on cell surface. The EC50 for stimulated cAMP production after activation characterizes the ability of the compound to activate the human GLP-1 receptor.
In this experiment, the compound and cells were co-incubated for 30 min.
Frozen cell line CHO-K1/GLP-1R/CRE-luc stably transformed with human GLP1 receptor was removed from a liquid nitrogen tank, and was placed in a 37°C water bath for rapid thawing. The cells were resuspended in DMEM/F12 medium, and after centrifugation, were washed once. The cells were resuspended in an experimental buffer, i.e., DMEM/F12 medium containing 0.1% casein. After centrifugation, cell density was adjusted using the experimental buffer. The cells were plated onto a 384-well plate at a density of 1500 cells/5 µL/well. Then, each well was added with 2.5 µL of IBMX working solution prepared with the buffer, the final concentration of IBMX being 0.5 mM, and 2.5 µL of a serially diluted compound sample (starting from […], 3-fold dilution, 12 concentrations). The plate was centrifuged at 1000 rpm for 1 min, and was stood for incubation at 37°C for 0.5 h. Determination was performed using the Cisbio cAMP - Gs Dynamic kit. cAMP-d2 and anti-cAMP-Eu3+-Cryptate were diluted 18-fold and 20-fold respectively with cAMP Lysis & Detection Buffer, and were respectively mixed homogeneously. Each well was added with 5 µL of diluted cAMP-d2 solution, and the plate was centrifuged at 1000 rpm for 1 min, and shaken for 30 seconds for homogeneous mixing. Then, each well was added with 5 µL of diluted anti-cAMP-Eu3+-Cryptate solution, and the plate was centrifuged at 1000 rpm for 1 min and was incubated in the dark at room temperature for 1 h. HTRF signals were read using the Biotek Synergy H1 microplate reader, the excitation wavelength being 320 nm and the emission wavelengths being 620 nm and 665 nm.
The signal-to-signal ratio was calculated (665 nm/620 nm * 10,000). Nonlinear fitting between the signal-to-signal ratio and the sample concentration was performed in GraphPad Prism 10 using a four-parameter equation to obtain the EC50 value.

[1] = Pharmacokinetic evaluation in beagles, oral administration; assay type: in vivo; conditions: dog, po, p.o. 2 mg/kg, plasma; for Cmax: read-out: Cmax; for MRT inf: read-out: MRT 0-∞; for Tmax: read-out: tmax
How it was run: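 Male beagles (3) fasted overnight received 2 mg/kg orally as a 0.4 mg/mL solution in 10% PEG400/10% PG/80% glycine buffer, pH 9.0-9.5. Plasma (EDTA-K2) sampled predose and 0.25-24 h; acetonitrile precipitation, then LC/MS/MS quantification.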

[2] = Pharmacokinetic evaluation in Macaca fascicularis monkeys, oral administration; assay type: in vivo; conditions: cynomolgus monkey, p.o. 5 mg/kg, plasma; for MRT inf: read-out: MRT 0-∞
Method: Macaca fascicularis monkeys were used as test animals to study the pharmacokinetic behavior of the compound of the present invention, administered orally at a dose of 5 mg/kg, in Macaca fascicularis monkeys (plasma).
Macaca fascicularis monkeys, 3 per group, male.
Preparation of drug for oral administration: 10%PEG400/10%PG/80% glycine buffer (100 mM glycine, 64 Mm NaOH, […]) buffer.
Single PK: The compound of the present invention was weighed into a 100 mL glass bottle, and the solution was added. The pH was first adjusted with 1 M NaOH until the compound dissolves to obtain a clear solution, and then the pH was readjusted to pH 9.0-9.5 with 1 M HCl. Sonication was performed for 10 min to obtain a colorless clear solution having a concentration of 1 mg/mL.
Three Macaca fascicularis monkeys, male, respectively administered p.o. after fasting overnight, at a dose of 5 mg/kg and in an administration volume of 5 mL/kg.
Blood collection: 0.3 mL of blood was collected from the forelimb vein of the Macaca fascicularis monkeys before administration and at 0.25, 0.5, 1, 2, 4, 6, 8, and 24 h after administration. The blood samples were placed in EDTA-K2 anticoagulant tubes and centrifuged at 6000 rpm at 4°C for 6 min to separate plasma, which was stored at -80°C. The Macaca fascicularis monkeys were fed 4 h after administration.
• 1) 40 µL of a plasma sample was added with 160 µL of acetonitrile for precipitation, and after mixing, the mixture was centrifuged at 3500 × g for 5 to 20 min. • 2) The supernatant solution after treatment was taken for LC/MS/MS analysis of the concentration of the test compound. The LC/MS/MS analysis instrument was AB Sciex API 4000 Qtrap.
• Liquid phase condition: Shimadzu LC-20AD pump • Chromatographic column: Agilent ZORBAX XDB-C18 (50×2.1 mm, 3.5 µm) Mobile phase: Solution A was 0.1% formic acid aqueous solution, and Solution B was acetonitrile • Flow rate: 0.4 mL/min • Elution time: 0-4.0 min, the eluent was as follows: […]

T1 sequence (P43220 24-463): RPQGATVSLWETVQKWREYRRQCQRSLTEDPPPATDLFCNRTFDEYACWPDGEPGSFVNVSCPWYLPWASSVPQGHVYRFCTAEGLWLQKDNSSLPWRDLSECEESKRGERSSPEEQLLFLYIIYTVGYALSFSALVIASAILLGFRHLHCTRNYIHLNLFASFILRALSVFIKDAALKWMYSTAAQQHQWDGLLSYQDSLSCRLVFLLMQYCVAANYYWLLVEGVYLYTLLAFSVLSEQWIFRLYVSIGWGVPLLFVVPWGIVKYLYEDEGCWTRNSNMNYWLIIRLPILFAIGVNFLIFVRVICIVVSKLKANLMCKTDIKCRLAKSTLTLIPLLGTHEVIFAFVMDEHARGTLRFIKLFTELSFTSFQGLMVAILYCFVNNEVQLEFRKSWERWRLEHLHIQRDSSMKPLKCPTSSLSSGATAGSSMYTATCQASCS

Cc1cc(-n2nc3c(c2-n2ccn(-c4ccc5c(cnn5C5CC5)c4F)c2=O)[C@H](C)N(C(=O)c2cc4cc([C@H]5CCOC(C)(C)C5)ccc4n2[C@@]2(c4noc(=O)[nH]4)C[C@@H]2COC2CC2)CC3)cc(C)c1F [Example 67]
EC50 (human GLP-1 receptor): 1.4 nM | AUC(0-inf) [1]: 11800 ng·h/mL | AUC(0-t) at 24 h [1]: 11500 ng·h/mL | half-life [1]: 4.2 h | Cmax [1]: 2110 ng/mL | MRT inf [1]: 5.7 h | Tmax [1]: 1.5 h

C#C[C@H]1C[C@]1(c1noc(=O)[nH]1)n1c(C(=O)N2CCc3nn(-c4cc(C)c(F)c(C)c4)c(-n4ccn(-c5ccc6c(cnn6C6CC6)c5F)c4=O)c3[C@@H]2C)cc2cc([C@H]3CCOC(C)(C)C3)ccc21 [Example 143]
AUC(0-inf) ([2]; male): 26200 ng·h/mL | AUC(0-t) ([2]; male): 26000 ng·h/mL | Cmax ([2]; male): 4040 ng/mL | Tmax ([2]; male): 2.7 h | half-life ([2]; male): 3.2 h | MRT inf ([2]; male): 5.1 h | AUC(0-inf) ([1]; male, beagle): 17800 ng·h/mL | half-life ([1]; male, beagle): 3.3 h | AUC(0-t) ([1]; male, beagle, read-out: AUC 0-t): 13800 ng·h/mL | Cmax ([1]; male, beagle): 2040 ng/mL | MRT inf ([1]; male, beagle): 4.8 h | Tmax ([1]; male, beagle): 2.7 h

CC#C[C@H]1C[C@]1(c1noc(=O)[nH]1)n1c(C(=O)N2CCc3nn(-c4cc(C)c(F)c(C)c4)c(-n4ccn(-c5ccc6c(cnn6C6CC6)c5F)c4=O)c3[C@@H]2C)cc2cc([C@H]3CCOC(C)(C)C3)ccc21 [Example 144, 3-((1S,2R)-1-(2-((S)-3-(3-(1-cyclopropyl-4-fluoro-1H-indazole-5-yl)-2-carbonyl-2,3-dihydro-1H-imidazole-1-yl)-2-(4-fluoro-3,5-dimethylphenyl)-4-methyl-4,5,6,7-tetrahydro-2H-pyrazolo[4,3-c]pyridin-5-carbonyl)-5-((S)-2,2-dimethyltetrahydro-2H-pyrano-4-yl)-1H-indole-1-yl)-2-(propyl-1-alkynyl-1-yl)cyclopropyl)-1,2,4-oxadiazol-5(4H)-one]
EC50 (human GLP-1 receptor; read-out: EC50): 1 nM | AUC(0-inf) [1]: 16600 ng·h/mL | AUC(0-t) at 24 h [1]: 15900 ng·h/mL | half-life [1]: 5.8 h | Cmax [1]: 2470 ng/mL | MRT inf [1]: 6.5 h | Tmax [1]: 1.7 h

[2H]C([2H])([2H])n1nc2c3c(c(-n4ccn(-c5c6c(nn5-c5cc(C)c(F)c(C)c5)CCN(C(=O)c5cc7cc([C@H]8CCOC(C)(C)C8)ccc7n5[C@@]5(c7noc(=O)[nH]7)C[C@@H]5C)[C@H]6C)c4=O)ccc31)OCCC2 [Example 282, 3-((1S,2S)-1-(5-((S)-2,2-dimethyltetrahydro-2H-pyran-4-yl)-2-((S)-2-(4-fluoro-3,5-dimethylphenyl)-4-methyl-3-(3-(2-(methyl-d3)-2,7,8,9-tetrahydrooxaheptano[4,3,2-cd]indazol-5-yl)-2-carbonyl-2,3-dihydro-1H-imidazol-1-yl)-4,5,6,7-tetrahydro-2H-pyrazolo[4,3-c]pyridine-5-carbonyl)-1H-indol-1-yl)-2-methylcyclopropyl)-1,2,4-oxadiazol-5(4H)-one]
AUC(0-inf) [2]: 17000 ng·h/mL | AUC(0-t) [2]: 7560 ng·h/mL | Cmax [2]: 570 ng/mL | Tmax [2]: 4 h | half-life [2]: 47.6 h | MRT inf [2]: 68.9 h | AUC(0-inf) [1]: 10800 ng·h/mL | AUC(0-t) at 24 h [1]: 9130 ng·h/mL | half-life [1]: 8.5 h | Cmax [1]: 858 ng/mL | MRT inf [1]: 12.1 h | Tmax [1]: 2 h
